Converted amounts (≈) assume the structure as drawn. “And” between values parts separate entries of the source, which are not always exact repeats. Identical values can stand only once.
What was measured:
[1] = In vitro stability in mouse jejunum (intestinal) homogenate; assay type: in vitro ADME; settings: for In vitro stability in mouse (% remaining at 60 min) Intestinal homogenate: 10 μM
Experimental: (§1) In addition to solubility, all prodrugs were screened for in vitro metabolic stability in mouse jejunum homogenate, liver microsomes and plasma (see Table 3) to characterize their bioconversion to MBZ. The screening paradigm was designed to confirm activation of prodrugs to MBZ following oral administration in these highly metabolic sites. Initial screening was done in mouse jejunum homogenate by incubating the compounds for 60 min. […] Following jejunum stability, the prodrugs were screened in mouse liver microsomes.
(§2) In vitro stability studies were done using mouse jejunum homogenate, mouse liver microsomes or naïve mouse plasma. For mouse jejunum homogenate stability study, washed mouse jejunum was diluted 10-fold in 0.1 M potassium phosphate buffer, and homogenized using probe sonication. Crude homogenate was then aliquoted to 1 mL and the homogenate was spiked with 10 μM of compound. Liver microsome stability assay was performed in 100 mM potassium phosphate buffer, pH 7.4, and reactions were initiated by addition of the liver microsomes to the incubation mixture (compound final concentration was 10 μM; 0.5 mg/mL microsomes). The plasma stability of the prodrugs was determined by spiking (10 μM) of prodrugs in 1 mL of plasma and incubating in an orbital shaker at 37° C. All the stability studies were conducted at predetermined times (0 and 60 min), where 100 μL aliquots of the mixture in triplicate were removed and the reaction was quenched by addition of three times the volume of ice cold acetonitrile spiked with the internal standard (losartan: 0.5 μM). The samples were vortex mixed for 30 sec and centrifuged at 10000×g for 10 min at 4° C. Fifty microliter of the supernatant was diluted with 50 μL water and transferred to a 2504 polypropylene vial sealed with a Teflon cap. Prodrug disappearance was monitored over time using liquid chromatography and tandem mass spectrometry (LC-MS/MS).
(§3) Briefly, prodrugs were analyzed on a Thermo Scientific Accela UPLC system coupled to Accela open autosampler at ambient temperature with an Agilent Eclipse Plus column (100×2.1 mm i.d.) packed with a 1.8 μm C18 stationary phase. The autosampler was temperature controlled and operated at 10° C. The mobile phase used for the chromatographic separation was composed of acetonitrile/water containing 0.1% formic acid and with a flow rate of 0.4 mL/min for 4.5 min using gradient elution. The column effluent was monitored using TSQ Vantage triple-quadrupole mass-spectrometric detector, equipped with an electrospray probe set in the positive ionization mode. Samples were introduced into the ionization source through a heated nebulized probe (350° C.). Disappearance of prodrugs was measured from ratio of peak areas of analyte to IS.

[2] = male, CD-1, mouse, in vivo, 30 mg/kg
Experimental: (§4) All pharmacokinetic studies in mice were conducted according to protocols approved by the Animal Care and Use Committee at Johns Hopkins University. Male CD-1 mice between 25 and 30 g were obtained from Harlan, and maintained on a 12-h light-dark cycle with ad libitum access to food and water. […] The mice were sacrificed at specified time points post drug administration. For collection of plasma and brain tissue, animals were euthanized with CO2, and blood samples were collected in heparinized microtubes by cardiac puncture. Tissues were dissected and immediately flash frozen (−80° C.). Blood samples were spun at 2,000×g for 15 min, plasma was removed and stored at −80° C. until LC/MS analysis. Prior to extraction, frozen samples were thawed on ice. The calibration curves were developed using plasma and brain from naïve animals as a matrix. Plasma samples (50 μL), were processed using a single liquid extraction method by addition of 3004 of acetonitrile as with internal standard (losartan: 0.5 μM), followed by vortex mixing for 30 sec and then centrifugation at 10,000×g for 10 min at 4° C. For brain tissue, homogenized samples were vortex mixed and centrifuged as above. A 104 aliquot of supernatant was diluted with 35 µL of acetonitrile and mixed with 50 μL water containing 0.5 μM losartan as internal standard. Extracts were centrifuged at 10,000×g for 10 min at 4° C. Supernatants were transferred to 2504 polypropylene autosampler vials sealed with a Teflon cap. A volume of 34 was injected onto the ultra-performance liquid chromatography (UPLC) instrument for quantitative analysis by LC-MS/MS.
The a priori level of significance for all analyses was defined asp <0.05.

physchem = settings: for solubility at 24 h: 37 °C, thermodynamic from solid; for fold improvement in solubility over MBZ-C: 24 h, pH 7.4
Experimental: The aqueous solubility was determined as previously reported using the shake-flask procedure published by Zhou, et al., 2007. The compound was added to PBS buffer (0.01 M) and shaken for 24 h at 37° C. to ensure saturation. After 24 h, the solution was centrifuged (10,000 rpm, 2 min, RT) filtered (0.45 μm PTFE) and the filtrate was diluted appropriately (i.e. neat, 1/10, 1/100, 1/1000) and the concentration of compound was determined using LC/MS.

[3] = In vitro stability in mouse liver microsomes; assay type: in vitro ADME; settings: for In vitro stability in mouse (% remaining at 60 min) Liver microsomes: 10 μM, 0.5 mg/mL microsomes
Experimental: as §1, §2, §3

[4] = In vitro stability in mouse plasma; assay type: in vitro ADME; settings: for In vitro stability in mouse (% remaining at 60 min) Plasma: 10 μM, 37° C.
Experimental: as §1, §2, §3

[5] = Chemical stability in PBS at 37° C. (LC-MS); assay type: physicochemical; settings: for chemical stability: aqueous environment / PBS
Experimental: Prodrugs were also tested for chemical stability in 0.01 M PBS for 60 min at 37° C. by monitoring intact prodrug using LC-MS. […] Thus prodrug 14 was not assessed in assays due to its significant instability in PBS at pH 7.4.
Prodrug chemical stability was measured by the addition of 1 μL, of 10 mM DMSO stock solution to 1 mL of preheated (37° C.) […], resulting in a final concentration of 10 μM. The mixture was vortex mixed for 30 sec, and then incubated at 37° C. At specified time points 100 μL of the mixture was removed and extracted with 300 μL of cold acetonitrile (0° C.) with internal standard. This mixture was further diluted with 400 μL of water and the resulting solution was analyzed by LC-MS.

[6] = cited from earlier work
[7] = in vivo, po
Experimental: Brain concentrations of MBZ were also measured in tandem.
as §4

SMILES	In vitro stability in mouse (% remaining at 60 min) Intestinal homogenate [1]	fold improvement in solubility over MBZ-C (physchem)	In vitro stability in mouse (% remaining at 60 min) Liver microsomes [3]	In vitro stability in mouse (% remaining at 60 min) Plasma [4]	also measured
COC(=O)Nc1nc2cc(C(=O)c3ccccc3)ccc2n1COC(=O)CNC(=O)[C@H](CC(C)C)NC(C)=O [Compound 7, (5-Benzoyl-2-((methoxycarbonyl)amino)-1H-benzo[d]imidazol-1-yl)methyl acetyl-L-leucylglycinate]	18 ± 1%	greater than 200 fold	29 ± 1%	0 ± 0%	MBZ plasma concentration at 1 h post oral administration [2]: 8.72 ± 0.63 nmol/mL; solubility at 24 h (physchem; pH 7.4, aqueous buffer): 85.5 µg/mL (≈ 159 µM); chemical stability [5]: sufficiently stable
COC(=O)Nc1nc2cc(C(=O)c3ccccc3)ccc2n1COC(=O)C(C)(C)C [Compound 1, (5-Benzoyl-2-((methoxycarbonyl)amino)-1H-benzo[d]imidazol-1-yl)methyl pivalate]	37 ± 2%	–	–	4 ± 0%	–
COC(=O)Nc1nc2cc(C(=O)c3ccccc3)ccc2n1COC(=O)CCC(=O)O [Compound 8, 4-((5-Benzoyl-2-((methoxycarbonyl)amino)-1H-benzo[d]imidazol-1-yl)methoxy)-4-oxobutanoic acid]	30 ± 2%	greater than 200 fold	24 ± 0%	78 ± 1%	solubility at 24 h (physchem; pH 7.4, aqueous buffer): 386 µg/mL (≈ 908 µM)
COC(=O)Nc1nc2cc(C(=O)c3ccccc3)ccc2n1C(OC(=O)C(C)(C)C)C(C)C (centres unmarked) [Compound 16, 1-(5-benzoyl-2-((methoxycarbonyl)amino)-1H-benzo[d]imidazol-1-yl)-2-methylpropyl pivalate]	100%	–	–	–	–
COC(=O)Nc1nc2cc(C(=O)c3ccccc3)ccc2n1COP(=O)(O)O [Compound 11, Methyl (5-benzoyl-1-((phosphonooxy)methyl)-1H-benzo[d]imidazol-2-yl)carbamate]	35 ± 4%	–	100 ± 2%	62 ± 1%	MBZ plasma concentration at 1 h post oral administration [2]: 8.53 ± 2.33 nmol/mL; stability in liver microsomes ([3]; 60 min incubation): stable
COC(=O)Nc1nc2cc(C(=O)c3ccccc3)ccc2n1COP(=O)([O-])OC(C)OC(=O)OC(C)C.[Na+] (centres unmarked) [Compound 17, Methyl (5-benzoyl-1-(((hydroxy(((isopropoxycarbonyl)oxy)ethoxy)phosphoryl)oxy)methyl)-111-benzo[d]imidazol-2-yl)carbamate, sodium salt]	46%	–	82%	89%	–
COC(=O)Nc1nc2ccc(C(=O)c3ccccc3)cc2[nH]1 [MBZ, Mebendazole]	–	–	–	–	oral bioavailability ([6]; pilot human study, one subject, intravenous and oral [3H]-mebendazole): 17%; bioavailability ([6]; second human study, five subjects): 22% and 12-35%
COC(=O)Nc1nc2cc(C(=O)c3ccccc3)ccc2n1C(C)OC(=O)C(C)(C)C (centres unmarked) [Compound 15, 1-(5-benzoyl-2-((methoxycarbonyl)amino)-1H-benzo[d]imidazol-1-yl)ethyl pivalate]	60%	–	–	85%	–
COC(=O)Nc1nc2cc(C(=O)c3ccccc3)ccc2n1COC(=O)CC[C@H](N)C(=O)O [Compound 14, (S)-2-Amino-5-((5-benzoyl-2-((methoxycarbonyl)amino)-1H-benzo[d]imidazol-1-yl)methoxy)-5-oxopentanoic acid]	–	–	–	–	solubility at 24 h (physchem; pH 7.4, water): 451 µg/mL (≈ 992 µM); chemical stability, % remaining at 60 min ([5]; 0.01 M PBS, 37° C., 60 min): 0%; chemical stability [5]: too unstable
COC(=O)Nc1nc2cc(C(=O)c3ccccc3)ccc2n1COC(=O)OC[C@H]1OC(O)[C@H](O)[C@@H](O)[C@@H]1O (stereo partly drawn) [Compound 9, Methyl (5-benzoyl-1-((((((2R,3S,4S,5R)-3,4,5,6-tetrahydroxytetrahydro-2H-pyran-2-yl)methoxy)carbonyl)oxy)methyl)-1H-benzo[d]imidazol-2-yl)carbamate]	4 ± 0%	greater than 200 fold	27 ± 0%	18 ± 0%	solubility at 24 h (physchem; pH 7.4, aqueous buffer): 220 µg/mL (≈ 414 µM); metabolized in mouse plasma ([4]; 60 min incubation): 82%
COC(=O)Nc1nc2cc(C(=O)c3ccccc3)ccc2n1COP(=O)([O-])OCOC(=O)OC(C)C.[Na+] [Compound 12, Methyl (5-benzoyl-1-(((hydroxy(((isopropoxycarbonyl)oxy)methoxy)phosphoryl)oxy)methyl)-1H-benzo[d]imidazol-2-yl)carbamate, sodium salt]	1 ± 0%	> 10,000 fold	14 ± 0%	73 ± 3%	stability in intestinal tissue homogenate [1]: unstable; MBZ plasma concentration at 1 h post oral administration [2]: 10.35 ± 2.57 nmol/mL; fold improvement in plasma MBZ over MBZ-C ([2]; po, 1 h): 3.6 fold; AUC0-t (MBZ, plasma) ([7]; male, CD-1, mouse, 30 mg/kg): 27.9 µM·h; brain AUC0-t ([7]; male, CD-1, mouse, 30 mg/kg): 21.9 µM·h; fold enhanced plasma AUC0-t compared to MBZ-C ([7]; male, CD-1, mouse, 30 mg/kg): 2.2 fold; fold increase in brain AUC0-t over MBZ-C ([7]; male, CD-1, mouse, 30 mg/kg): 1.7 fold; intact prodrug in brain samples ([7]; mouse): no intact prodrug was detected; intact prodrug in plasma samples ([7]; mouse): no intact prodrug was detected; AUC0-t (MBZ, brain) ([7]; mouse, 30 mg/kg): 21.9 ± 2.0 nmol·h/g

— patent US20210205271A1 (The Johns Hopkins University, priority 2018, published 2021)
